Results: patent US5059438A, “Compositions and methods for inhibiting browning in foods using resorcinol derivatives” (Enzytech, Inc., priority 1990, dated 1991)
One block for each compound: values may come before it.

Key:
[1] = tested on: fresh pink shrimp (Penaeus duorarum) melanosis; test: Effect of Formula V compound on fresh pink shrimp melanosis
Procedure: Pink shrimp (Penaeus duorarum) were treated and evaluated as described in Example 8 except that the experiment was carried out on a shrimp boat with freshly caught shrimp. The shrimp were not frozen prior to treatment with various concentrations of the compound of Formula V. All solutions were prepared in sea water.
Fresh pink shrimp were treated and evaluated as described in Example 12. The shrimp treated with 0.025% of the compound of Formula V were stored directly or following a sea water rinse, post-treatment.
Fresh pink shrimp were treated and evaluated as described in Example 12. The shrimp were dipped in a 0.01% solution of the compound of Formula V made up in either sea or fresh water.
Fresh pink shrimp were treated and evaluated as described in Example 12. In this example, different one pound batches of shrimp were dipped into the same one liter solution of 0.01% of the Formula V compound for one minute each. A total of eight dips were performed.

[2] = tested on: McIntosh apples, browning; test: Inhibition of browning in apples by Formula V and YM5 eluate; details: lactose 9.0%, 1,4-diaminobutane 5 mM
Procedure: Two fresh and unbruised whole McIntosh apples, held at ambient temperature,were sliced with a stainless steel paring knife into quarters, cored, then cut into 1/4-inch slices. A volume of 0.8 mL of each of the treatment solutions listed in Table 5 at ambient temperature was applied onto the top exposed surface of freshly cut white slices, triplicate samples per treatment. […] Following application, the slices stood at ambient temperature, exposed to air and light, for periodic visual observation of relative rate and extent of browning, from 15 minutes to 4 hours.

[3] = tested on: mushroom PPO (catecholase); details: Kuttner and Wagreich 1952; cited from earlier work
PPO (mushroom) = test: Inhibition of PPO by various resorcinol derivatives (linear spectrophotometric assay); format: biochemical; details: 0.133 mM L-DOPA, pH 6.5, 25° C., 475 nm, read-out: I50 (apparent inhibition constant)
Procedure: In order to determine the effect of various resorcinol compounds on the inhibition of PPO (mushroom), a linear spectrophotmetric assay system similar to that described in Example 1 was used. The assay mixture consisted of:
5 mM sodium phosphate, pH 6.5;
0.133 mM L-dihydroxyphenylalanine (L-DOPA); PPO (mushroom); and
+/- varied concentrations of the compound to be tested
The rate of the reaction was monitored by measuring the change in absorbance per minute at 475 nm at 25° C.
I50 represents the concentration of inhibitor necessary to obtain fifty (50%) percent inhibition of the enzyme.

pink shrimp melanosis = test: Effect of 4-hexylresorcinol, Formula VI and Formula IV compounds on development of shrimp melanosis; parameters: species or system Penaeus duorarum
Procedure: In one embodiment of the present invention, pink shrimp were treated with an aqueous solution of the compound of Formula II. Formula II was used at concentrations ranging from 0.0001 to 0.005%, and compared to shrimp treated with sodium bisulfite and sea water. The sea water treated shrimp developed melanosis spots within 1-2 days. […] A concentration of up to about 0.1% of Formula II can be used for inhibiting browning.
Harvests were arranged such that fresh, heads-on pink shrimp were obtained within less than 12 hours post-harvest at the dock. All shrimp were routinely washed on-board and temporarily stored in ice. The basic procedure was to rinse 400-600 grams of shrimp in 2.5 liters of variable dip compositions and concentrations for 1 minute then drain and package in plastic bags to be stored in ice. The bags were considered necessary to eliminate the variable influence of melting ice. Iced containers with packaged shrimp were stored in 35° F. (1.7° C.) refrigeration with reicing every other day.
Development of melanosis was scored and photographed routinely during 2 weeks of storage. The bags of shrimp had been numbered such that the investigator could not distinguish amongst the various treatments. One experienced investigator did all scoring relative to the aforementioned scale (Table 2). The scale was accompanied by pre-developed color prints depicting common examples of the advancing stages for melanosis. The intent was to screen for obvious differences between treatments, thus selecting the best treatments for subsequent tests with statistical evaluations.
Pink shrimp were treated and evaluated as described in Example 8 except that the compound of Formula II (4-hexylresorcinol, Sigma Chemical Co.) was substituted for the Formula V compound. Pink shrimp were dipped into solutions of 0.0001-0.005% of the Formula II compound and stored as described above.
Pink shrimp were treated and evaluated as described in Example 8 except that the compound of Formula VI (see Example 6) was substituted for the Formula V compound. Pink shrimp were dipped into solutions of 0.001-0.025%of the Formula VI compound and stored as described above.
Pink shrimp were treated and evaluated as described in Example 8 except that the compound of Formula IV (2,4-dihydroxyphenylpropionic acid) was substituted for the Formula V compound. Pink shrimp were dipped into solutions of 0.001-0.1% the Formula IV compound and stored as described above.

PPO in peaches = details: Wong et al. 1971; cited from earlier work

IC50 (PPO (mushroom)): 5 µM
Compound: O=C(CCc1ccc(O)cc1O)NCCCCNC(=O)CCc1ccc(O)cc1O [Formula VI, bis-2,4-dihydroxyphenylpropionyldiaminobutane]
lowest concentration inhibiting formation of shrimp melanosis (potent inhibitor at concentrations as low as) (pink shrimp melanosis; FIG. 11, tested 0.001-0.025%): 0.005%

IC50 (PPO (mushroom)): 1.8 µM
Compound: CCCc1ccc(O)cc1O [4-n-Propylresorcinol]

IC50 (PPO (mushroom)): 2700 µM
Compound: Oc1cccc(O)c1 [Resorcinol, 1,3-dihydroxybenzene]
reaction with 4-methyl-o-quinone formed by PPO in peaches (PPO in peaches): react with 4-methyl-o-quinone
substrate for PPO (PPO in peaches): not substrates for PPO

IC50 (PPO (mushroom)): 5 µM
Compound: O=C(CCc1ccc(O)cc1O)NCCCCNCCCNC(=O)CCc1ccc(O)cc1O [Formula VII, bis-2,4-dihydroxyphenylpropionylspermidine]

IC50 (PPO (mushroom)): 0.8 µM
Compound: CCc1ccc(O)cc1O [4-Ethylresorcinol]

IC50 (PPO (mushroom)): 750 µM
Compound: CCCCCC(=O)c1ccc(O)cc1O [4-Hexanoylresorcinol]

IC50 (PPO (mushroom)): 0.5 µM
Compound: CCCCCCc1ccc(O)cc1O [Formula II, 4-hexylresorcinol]
inhibiting browning of shrimp on a weight basis vs sodium bisulfite (pink shrimp melanosis; 0.0001 to 0.005% (FIG. 10)): more effective on a weight basis than sodium bisulfite
inhibiting shrimp melanosis vs sodium bisulfite (pink shrimp melanosis; 0.005% by weight vs 1.25% by weight bisulfite (FIG. 10)): almost as effective in inhibiting shrimp melanosis as a solution of 1.25% by weight bisulfite
lowest concentration inhibiting formation of shrimp melanosis (potent inhibitor at concentrations as low as) (pink shrimp melanosis; FIG. 10, tested 0.0001-0.005%): 0.0005%

Further lines, the compound ahead of its results:

Compound: NCCCCNC(=O)CCc1ccc(O)cc1O [Formula V, 2,4-dihydroxyphenylpropionyldiaminobutane]
effect of fresh or sea water as solvent on inhibition of shrimp melanosis (FIG. 8) ([1]; 0.01%): no significant effect
effect of post-treatment sea water rinse on inhibition of shrimp melanosis (FIG. 7) ([1]; 0.025%): no significant effect

Compound: OC[C@H]1O[C@@H](O[C@H]2[C@H](O)[C@@H](O)C(O)O[C@@H]2CO)[C@H](O)[C@@H](O)[C@H]1O (stereo partly shown) [Lactose]
prevention of browning of apples, conclusion [2]: did not prevent browning

Compound: O=C(O)c1ccccc1 [benzoic acid]
inhibition of mushroom PPO (catecholase) [3]: inhibited

Compound: CCCCCCCCCCCCc1ccc(O)cc1O [4-Dodecylresorcinol]
IC50 (PPO (mushroom)): 0.3 µM

Compound: Oc1cc(O)c2c(c1)O[C@H](c1ccc(O)c(O)c1)[C@@H](O)C2 [d-catechin]
reaction with 4-methyl-o-quinone formed by PPO in peaches (PPO in peaches): react with 4-methyl-o-quinone
substrate for PPO (PPO in peaches): not substrates for PPO

Compound: O=C(O)c1ccc(O)cc1O [4-Carboxyresorcinol, 2,4-Dihydroxybenzoic Acid]
IC50 (PPO (mushroom)): 150 µM

Compound: Cc1cc(O)cc(O)c1 [orcinol]
reaction with 4-methyl-o-quinone formed by PPO in peaches (PPO in peaches): react with 4-methyl-o-quinone
substrate for PPO (PPO in peaches): not substrates for PPO

Compound: Oc1cc(O)cc(O)c1 [phloroglucinol]
reaction with 4-methyl-o-quinone formed by PPO in peaches (PPO in peaches): react with 4-methyl-o-quinone
substrate for PPO (PPO in peaches): not substrates for PPO

Compound: O=C(O)CCc1ccc(O)cc1O [Formula IV, 2,4-dihydroxyphenylpropionic acid]
lowest concentration inhibiting formation of shrimp melanosis (inhibitor at concentrations as low as) (pink shrimp melanosis; FIG. 12, tested 0.001-0.1%): 0.05%

Compound: NCCCCN [1,4-diaminobutane]
prevention of browning of apples, conclusion [2]: did not prevent browning

Compound: Oc1ccc(C2CCCCC2)c(O)c1 [4-Cyclohexylresorcinol]
IC50 (PPO (mushroom)): 0.2 µM
